Test results: PMC6628235 (Marine Drugs, 2019)

Tests used:
Type in all cases: biochemical
[1] = biological target: acetylcholinesterase (AChE) (Electrophorus electricus, UniProt O42275); assay: modified Ellman's microplate assay ([…] inhibition at […])
[2] = biological target: T1, butyrylcholinesterase (BuChE) (Equus caballus, UniProt P81908); assay: modified Ellman's assay, positive control, % inhibition at […] (IC50 not determined)
T1 construct: gene BCHE

[3] = biological target: T1, butyrylcholinesterase (BuChE); assay: modified Ellman's assay, % inhibition at […] (IC50 not determined)

T1 sequence (P81908 whole entry): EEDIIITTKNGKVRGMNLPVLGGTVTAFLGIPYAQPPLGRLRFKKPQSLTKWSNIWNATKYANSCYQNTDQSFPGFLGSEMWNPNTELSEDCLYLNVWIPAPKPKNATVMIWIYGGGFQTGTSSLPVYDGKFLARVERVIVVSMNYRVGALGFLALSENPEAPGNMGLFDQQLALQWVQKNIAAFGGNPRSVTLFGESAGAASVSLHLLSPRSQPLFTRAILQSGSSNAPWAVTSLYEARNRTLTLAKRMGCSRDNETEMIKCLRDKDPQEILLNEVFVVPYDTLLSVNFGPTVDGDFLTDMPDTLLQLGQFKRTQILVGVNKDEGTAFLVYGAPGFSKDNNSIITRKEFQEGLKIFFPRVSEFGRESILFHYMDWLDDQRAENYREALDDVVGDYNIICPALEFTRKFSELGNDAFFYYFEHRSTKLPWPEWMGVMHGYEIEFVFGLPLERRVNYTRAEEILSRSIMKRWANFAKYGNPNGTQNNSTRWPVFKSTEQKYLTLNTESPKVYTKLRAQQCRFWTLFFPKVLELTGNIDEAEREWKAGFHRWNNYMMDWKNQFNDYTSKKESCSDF
Chain of acetylcholinesterase (AChE) (O42275 24-633): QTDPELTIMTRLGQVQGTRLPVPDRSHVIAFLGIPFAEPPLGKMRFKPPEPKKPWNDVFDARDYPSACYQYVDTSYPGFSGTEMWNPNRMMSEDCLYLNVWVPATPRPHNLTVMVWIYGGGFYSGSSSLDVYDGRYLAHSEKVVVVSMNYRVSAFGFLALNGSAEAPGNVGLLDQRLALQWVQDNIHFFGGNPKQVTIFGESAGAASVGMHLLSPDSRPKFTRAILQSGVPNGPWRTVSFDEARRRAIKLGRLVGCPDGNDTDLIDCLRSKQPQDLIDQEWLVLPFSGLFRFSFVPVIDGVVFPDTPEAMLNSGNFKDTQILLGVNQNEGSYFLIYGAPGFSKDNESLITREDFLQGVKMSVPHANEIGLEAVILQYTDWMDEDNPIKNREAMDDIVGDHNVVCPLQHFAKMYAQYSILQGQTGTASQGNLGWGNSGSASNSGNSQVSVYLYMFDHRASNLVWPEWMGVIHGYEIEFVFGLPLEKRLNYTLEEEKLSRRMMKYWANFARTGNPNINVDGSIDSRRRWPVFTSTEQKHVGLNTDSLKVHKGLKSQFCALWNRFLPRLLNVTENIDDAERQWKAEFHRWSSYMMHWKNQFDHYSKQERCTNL

Question: For `Cc1cc2nc3[nH]c(=O)[nH]c(=O)c3nc2cc1C` [compound 3, lumichrome], which IC50 [1] is on record?
Answer: 12.24 ± 0.12 µM

Question: Which “% inhibition at 6.25 μM” value [2] does the source give for `COc1ccc2c3c1O[C@H]1C[C@@H](O)C=C[C@@]31CCN(C)C2` [galantamine] here?
Answer: 10.34 ± 0.21

Question: Which inhibition at 6.25 µM [3] does the source give for `CC1=C[C@H](O)[C@]2(CC1=O)C[C@H](O)C(C)(C)O2` [compound 1, (3S, 5R, 10S)-3,10-dihydroxy-2,2,8-trimethyl-1-oxospiro[4.5]dec-8-en-7-one] here?
Answer: 30.71 ± 0.21%
